Experimental data reported in patent EP4740948A1 (Dong Wha Pharm. Co., Ltd., priority 2023, dated 2025).

Tests used:
EZH1 = EZH1 (Homo sapiens, UniProt Q92800); test: AlphaLISA enzyme activity inhibition, EZH1; type: biochemical; settings: for inhibition at 0.005 µM: 5nM test substance; for inhibition at 0.01 µM: 10nM test substance
Method in brief: (§1)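 EZH1 or EZH2 was mixed with compound at 5 nM or 10 nM final in 20 mM Tris pH 8.0, 0.1% BSA, 0.5 mM DTT, then histone H3 peptide and SAM were added. After 2 h reaction, AlphaLISA acceptor and donor beads detected methylation; inhibition rate was calculated against DMSO control.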

EZH2 = EZH2 (Homo sapiens, UniProt Q15910); test: AlphaLISA enzyme activity inhibition, EZH2; type: biochemical; settings: for inhibition at 0.005 µM: 5nM test substance; for inhibition at 0.01 µM: 10nM test substance
EZH2, sequence (Q15910 whole entry, species assumed): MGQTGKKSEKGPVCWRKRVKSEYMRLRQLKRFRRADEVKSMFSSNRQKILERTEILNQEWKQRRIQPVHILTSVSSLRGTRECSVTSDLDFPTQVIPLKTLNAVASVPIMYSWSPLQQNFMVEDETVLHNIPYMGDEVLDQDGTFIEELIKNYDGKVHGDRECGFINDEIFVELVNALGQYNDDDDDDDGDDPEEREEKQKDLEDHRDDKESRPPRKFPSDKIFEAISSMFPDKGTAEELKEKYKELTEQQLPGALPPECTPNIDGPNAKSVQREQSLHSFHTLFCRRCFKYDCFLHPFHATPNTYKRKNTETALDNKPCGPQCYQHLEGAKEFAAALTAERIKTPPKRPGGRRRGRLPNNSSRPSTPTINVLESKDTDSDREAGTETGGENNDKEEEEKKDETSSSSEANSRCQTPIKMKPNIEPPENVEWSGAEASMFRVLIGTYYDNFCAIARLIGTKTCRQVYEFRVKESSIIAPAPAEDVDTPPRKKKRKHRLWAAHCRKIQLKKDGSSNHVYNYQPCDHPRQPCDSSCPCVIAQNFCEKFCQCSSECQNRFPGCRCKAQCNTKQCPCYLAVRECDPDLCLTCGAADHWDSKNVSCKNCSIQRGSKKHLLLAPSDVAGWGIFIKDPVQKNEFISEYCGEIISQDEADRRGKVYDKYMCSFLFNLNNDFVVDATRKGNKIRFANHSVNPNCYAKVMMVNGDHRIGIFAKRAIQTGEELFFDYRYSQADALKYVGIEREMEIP
EZH2, sequence (O75530 whole entry partner, species assumed): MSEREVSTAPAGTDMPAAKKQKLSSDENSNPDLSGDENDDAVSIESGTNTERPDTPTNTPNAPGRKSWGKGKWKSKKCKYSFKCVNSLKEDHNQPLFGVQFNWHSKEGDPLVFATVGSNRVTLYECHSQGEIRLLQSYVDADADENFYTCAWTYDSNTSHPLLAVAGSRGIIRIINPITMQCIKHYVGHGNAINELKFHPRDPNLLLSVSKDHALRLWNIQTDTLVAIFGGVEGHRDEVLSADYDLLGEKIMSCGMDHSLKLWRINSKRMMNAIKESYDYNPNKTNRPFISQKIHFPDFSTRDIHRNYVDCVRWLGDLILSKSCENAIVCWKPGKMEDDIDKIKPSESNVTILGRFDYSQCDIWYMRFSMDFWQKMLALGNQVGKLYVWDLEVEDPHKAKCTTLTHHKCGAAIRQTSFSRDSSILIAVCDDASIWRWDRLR
EZH2, sequence (Q15022 whole entry partner, species assumed): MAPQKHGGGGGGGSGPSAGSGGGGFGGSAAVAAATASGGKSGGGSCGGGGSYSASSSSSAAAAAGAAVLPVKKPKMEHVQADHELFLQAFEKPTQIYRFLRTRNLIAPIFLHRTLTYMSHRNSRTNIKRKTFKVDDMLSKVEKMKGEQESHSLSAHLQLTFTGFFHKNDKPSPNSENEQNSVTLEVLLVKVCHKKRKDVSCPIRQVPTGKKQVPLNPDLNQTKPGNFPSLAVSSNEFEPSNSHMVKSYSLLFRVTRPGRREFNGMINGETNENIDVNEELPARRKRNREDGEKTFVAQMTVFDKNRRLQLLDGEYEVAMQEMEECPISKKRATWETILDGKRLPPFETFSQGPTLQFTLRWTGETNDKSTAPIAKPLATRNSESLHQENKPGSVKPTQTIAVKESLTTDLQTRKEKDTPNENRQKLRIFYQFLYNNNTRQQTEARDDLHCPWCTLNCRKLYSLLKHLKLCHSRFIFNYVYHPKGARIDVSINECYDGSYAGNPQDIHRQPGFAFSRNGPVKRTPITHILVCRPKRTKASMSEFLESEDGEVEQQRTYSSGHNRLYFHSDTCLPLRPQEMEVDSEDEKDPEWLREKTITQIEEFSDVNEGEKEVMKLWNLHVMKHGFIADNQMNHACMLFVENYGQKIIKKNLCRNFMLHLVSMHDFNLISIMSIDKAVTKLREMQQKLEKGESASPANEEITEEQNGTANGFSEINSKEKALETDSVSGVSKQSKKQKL
Method in brief: as §1

Lovo cells = test: Cancer cell proliferation inhibition (Cell Counting Kit-8), colorectal cancer cell line; type: cell-based; settings: 1000 nM, cultured seven to 11 days; for % inhibition rate LoVo: 1 µM; for inhibition at 1 µM: Homo sapiens, LoVo, 264 h, read-out: % inhibition rate LoVo
Method in brief: (§2)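 One dose only (1000 nM), 7–11 d exposure, 10% FBS in line-appropriate medium; CCK-8 endpoint, inhibition expressed relative to control.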

G401 cells = test: Cancer cell proliferation inhibition (Cell Counting Kit-8), rhabdoid tumor cell line; type: cell-based; settings: 1000 nM, cultured seven to 11 days; for % inhibition rate G401: 1 µM
Method in brief: (§3)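 Cells grown in RPMI1640, McCoy's 5a, L-15 or DMEM with 10% FBS, seeded at 100 to 1,000 cells/well and treated with test substance at 1000 nM for 7 to 11 days. Viability read by CCK-8; % inhibition = {1−(test/control)} × 100.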

MKN-45 cells = test: Cancer cell proliferation inhibition (Cell Counting Kit-8), gastric cancer cell line; type: cell-based; settings: Homo sapiens, MKN-45, 264 h, 1000 nM, cultured seven to 11 days; read-out: % inhibition rate MKN -45
Method in brief: as §3

SW-13 cells = test: Cancer cell proliferation inhibition (Cell Counting Kit-8), adrenal cancer cell line; type: cell-based; settings: Homo sapiens, SW13, 264 h, 1000 nM, cultured seven to 11 days; read-out: % inhibition rate SW-13
Method in brief: as §2

MIA-PaCa-2 cells = test: Cancer cell proliferation inhibition (Cell Counting Kit-8), pancreatic cancer cell line; type: cell-based; settings: Homo sapiens, MIA PaCa-2, 264 h, 1000 nM, cultured seven to 11 days; read-out: % inhibition rate MIA-Paca2
Method in brief: as §2

NCI-H1299 cells = test: Cancer cell proliferation inhibition (Cell Counting Kit-8), lung cancer cell line; type: cell-based; settings: Homo sapiens, NCI-H1299, 264 h, 1000 nM, cultured seven to 11 days; read-out: % inhibition rate NCI-H129 9
Method in brief: as §2

EZH1, sequence (Q92800 whole entry, species assumed): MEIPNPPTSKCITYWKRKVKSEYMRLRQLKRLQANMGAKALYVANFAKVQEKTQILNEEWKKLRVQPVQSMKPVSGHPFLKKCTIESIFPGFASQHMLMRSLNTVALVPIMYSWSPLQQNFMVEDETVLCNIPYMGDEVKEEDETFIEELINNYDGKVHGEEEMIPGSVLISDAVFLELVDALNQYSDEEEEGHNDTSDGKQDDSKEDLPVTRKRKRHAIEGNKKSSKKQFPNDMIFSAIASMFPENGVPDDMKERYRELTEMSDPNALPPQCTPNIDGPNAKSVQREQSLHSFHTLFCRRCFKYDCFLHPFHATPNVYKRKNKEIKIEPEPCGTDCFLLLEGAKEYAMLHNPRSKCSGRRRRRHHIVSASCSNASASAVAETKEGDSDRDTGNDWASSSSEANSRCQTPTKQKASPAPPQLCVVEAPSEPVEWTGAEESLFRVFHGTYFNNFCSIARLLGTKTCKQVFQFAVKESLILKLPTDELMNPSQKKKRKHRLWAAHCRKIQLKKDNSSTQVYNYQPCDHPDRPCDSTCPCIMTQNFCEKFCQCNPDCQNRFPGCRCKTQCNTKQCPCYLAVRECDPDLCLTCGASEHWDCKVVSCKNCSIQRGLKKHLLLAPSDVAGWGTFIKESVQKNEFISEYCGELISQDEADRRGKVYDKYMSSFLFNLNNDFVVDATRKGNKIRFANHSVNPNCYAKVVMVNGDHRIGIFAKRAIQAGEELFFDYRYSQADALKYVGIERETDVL
EZH1, sequence (O75530 whole entry partner, species assumed): as the sequence (O75530 whole entry partner, species assumed) above
EZH1, sequence (Q15022 whole entry partner, species assumed): as the sequence (Q15022 whole entry partner, species assumed) above

Compound | inhibition at 0.005 µM (EZH1) [%] | inhibition at 0.01 µM (EZH1) [%] | inhibition at 0.005 µM (EZH2) [%] | inhibition at 0.01 µM (EZH2) [%] | % inhibition rate LoVo (Lovo cells) | % inhibition rate G401 (G401 cells) | inhibition at 1 µM (MKN-45 cells) [%] | inhibition at 1 µM (SW-13 cells) [%] | inhibition at 1 µM (MIA-PaCa-2 cells) [%] | inhibition at 1 µM (NCI-H1299 cells) [%] | inhibition at 1 µM (Lovo cells) [%] | inhibition at 1 µM (G401 cells; Homo sapiens, G-401, 264 h, read-out: % inhibition rate G401) [%]
CSc1cc(C)[nH]c(=O)c1CNC(=O)c1cc(-c2ccc(N3C[C@@H](C)O[C@@H](C)C3)nc2)c2c(c1C)OC(C)(C1CCN(CC(F)(F)F)CC1)O2 (single isomer, unassigned) [Compound 44] | 46.8 | 78.2 | 96.1 | 99.6 | +++ (+++: ≥70%) | +++ (+++: ≥70%) | 30 to 70 | 30 to 70 | ≤ 30 | 30 to 70 | – | –
CSc1cc(C)[nH]c(=O)c1CNC(=O)c1cc(-c2ccc(N3C[C@@H](C)O[C@@H](C)C3)nc2)c2c(c1C)OC(C)(C1CCN(CC(F)F)CC1)O2 (single isomer, unassigned) [Compound 47] | 68.1 | 86.7 | 94.5 | 99.6 | – | +++ (+++: ≥70%) | 30 to 70 | 30 to 70 | ≤ 30 | 30 to 70 | ≥ 70 | –
CCN1CCC(C2(C)Oc3c(-c4ccc(N5C[C@@H](C)O[C@@H](C)C5)nc4)cc(C(=O)NCc4c(SC)cc(C)[nH]c4=O)c(C)c3O2)CC1 (single isomer, unassigned) [Compound 49] | 78.8 | 92.4 | 99.2 | 99.5 | +++ (+++: ≥70%) | – | ≤ 30 | 30 to 70 | ≤ 30 | 30 to 70 | – | 30 to 70
CSc1cc(C)[nH]c(=O)c1CNC(=O)c1cc(-c2ccc(N3C[C@@H](C)O[C@@H](C)C3)nc2)c2c(c1C)OC(C)(C1CCN(C(C)C)CC1)O2 (single isomer, unassigned) [Compound 51] | 80.2 | 93 | 99.3 | 99.5 | +++ (+++: ≥70%) | +++ (+++: ≥70%) | ≤ 30 | 30 to 70 | ≤ 30 | 30 to 70 | – | –
CSc1cc(C)[nH]c(=O)c1CNC(=O)c1cc(-c2ccc(N3C[C@@H](C)O[C@@H](C)C3)nc2)c2c(c1C)OC(C)(C1CCN(C3CCCCC3)CC1)O2 (single isomer, unassigned) [Compound 53] | 78.3 | 91.6 | 98.5 | 99.6 | +++ (+++: ≥70%) | +++ (+++: ≥70%) | ≤ 30 | 30 to 70 | ≤ 30 | 30 to 70 | – | –
CSc1cc(C)[nH]c(=O)c1CNC(=O)c1cc(-c2ccc(N3C[C@@H](C)O[C@@H](C)C3)nc2)c2c(c1C)OC(C)(C1CCN(CCc3ccccc3)CC1)O2 (single isomer, unassigned) [Compound 55] | 31.6 | 52.2 | 58.2 | 93.3 | – | +++ (+++: ≥70%) | 30 to 70 | 30 to 70 | ≤ 30 | 30 to 70 | ≥ 70 | –
CSc1cc(C)[nH]c(=O)c1CNC(=O)c1cc(-c2ccc(N3C[C@@H](C)O[C@@H](C)C3)nc2)c2c(c1C)OC(C)(C1CCN(CCCC(F)(F)F)CC1)O2 (single isomer, unassigned) [Compound 57] | 58.9 | 76.2 | 96 | 99.4 | +++ (+++: ≥70%) | +++ (+++: ≥70%) | 30 to 70 | 30 to 70 | 30 to 70 | 30 to 70 | – | –
CSc1cc(C)[nH]c(=O)c1CNC(=O)c1cc(-c2ccc(N3C[C@@H](C)O[C@@H](C)C3)nc2)c2c(c1C)OC(C)(C1CCN(C(=O)C(F)(F)F)CC1)O2 (single isomer, unassigned) [Compound 59] | 42.2 | 5.7 | 98.5 | 99.5 | – | +++ (+++: ≥70%) | 30 to 70 | 30 to 70 | ≤ 30 | 30 to 70 | ≥ 70 | –
CSc1cc(C)[nH]c(=O)c1CNC(=O)c1cc(-c2ccc(N3CCOCC3)nc2)c2c(c1C)OC(C)(C1CCN(CC(F)(F)F)CC1)O2 (single isomer, unassigned) [Compound 62, 2,4-dimethyl-N-((6-methyl-4-(methylthio)-2-oxo-1,2-dihydropyridin-3-yl)methyl)-7-(6-morpholinopyridin-3-yl)-2-(1-(2,2,2-trifluoro)piperidin-4-yl)benzo[d][1,3]dioxole-5-carboxamide] | 66.9 | 81.8 | 93.6 | 99.4 | +++ (+++: ≥70%) | +++ (+++: ≥70%) | 30 to 70 | 30 to 70 | ≤ 30 | 30 to 70 | – | –
CSc1cc(C)[nH]c(=O)c1CNC(=O)c1cc(-c2ccc(N3CCOCC3)nc2)c2c(c1C)OC(C)(C1CCN(CC(F)F)CC1)O2 (single isomer, unassigned) [Compound 64, 2-(1-(2,2-difluoroethyl)piperidin-4-yl)-2,4-dimethyl-N-((6-methyl-4-(methylthio)-2-oxo-1,2-dihydropyridin-3-yl)methyl)-7-(6-morpholinopyridin-3-yl)benzo[d][1,3]dioxole-5-carboxamide] | 82.5 | 90.5 | 99.2 | 99.6 | +++ (+++: ≥70%) | +++ (+++: ≥70%) | 30 to 70 | 30 to 70 | ≤ 30 | ≤ 30 | – | –
CCN1CCC(C2(C)Oc3c(-c4ccc(N5CCOCC5)nc4)cc(C(=O)NCc4c(SC)cc(C)[nH]c4=O)c(C)c3O2)CC1 (single isomer, unassigned) [Compound 66, 2-(1-ethylpiperidin-4-yl)-2,4-dimethyl-N-((6-methyl-4-(methylthio)-2-oxo-1,2-dihydropyridin-3-yl)methyl)-7-(6-morpholinopyridin-3-yl)benzo[d][1,3]dioxole-5-carboxamide] | 81.3 | 90.9 | 99.3 | 99.6 | – | +++ (+++: ≥70%) | 30 to 70 | ≤ 30 | ≤ 30 | ≤ 30 | 30 to 70 | –
